According to US8728771B2, “L-succinylaminoacylase and process for producing L-amino acid using it” (Toyo Boseki Kabushiki Kaisha, priority 2008, dated 2014):

B1: L-succinylaminoacylase of the present invention: protein of amino acid sequence SEQ ID No: 2, L-succinylaminoacylase of IFO 12983 strain of Geobacillus stearothermophilus (protein, listed as Geobacillus stearothermophilus)
chain: MKEIIQQMKAELWSIFDYLHRHPEISWEEWGTTEFVRRELEREGYRVWTFADCPGVVAEIGDGPFMVGVRSDMDALWQEVNGVWQPNHACGHDAHMTIVLGVAKLLRRIGYEPPGTLRFLFQPAEEKGTGALKLIEKGAVDGMSFLYGVHLRPVQEVKSGYATPAIIHGAAQCIEGRIRGMAAHAARPHLGVNVIEVGSAIVQELGKIHVDPQVPATIKMTRFHAGEKDVNTIPDYAEFSLDLRAQTNEAMEQLVERLRRVVNGVAAIYGAEIELDERTRIVAANPDLDAKRLMEEAIIAVLGEEKCIPPVITSGGEDFHFYAFKKPELKTTMLGLGCDLRPGLHHPQMTFQRDDLLSGIEILARTVINTFALQGEKERVSIAANH

Tests used:
[1] = tested on: L-succinylaminoacylase of the present invention; experiment: Comparative experiment for enzymatic activity (ii), enzyme of the present invention (Example 7); format: biochemical, Geobacillus stearothermophilus IFO 12983 strain; settings: 4 hours, 50° C., pH 7.5, cobalt acetate
Description: (§1) Each of N-succinyl-DL-4-bromophenylalanine, N-succinyl-DL-biphenylalanine, N-succinyl-DL-3,4-dichlorophenylalanine, N-succinyl-DL-cyclohexylglycine, and N-succinyl-DL-tert-leucine synthesized in the above (3) was used to prepare an amino acid solution of 10% by weight (pH 7.5). Mixed solution of 0.25 ml of 0.1M HEPES-NaOH buffer (pH 7.5), 0.025 ml of 0.1M cobalt acetate solution, 0.5 ml of each amino acid solution and 4.2 ml of distilled water was prepared. To the resulting solution was added 0.025 ml of a solution of the L-succinylaminoacylase disclosed in Example 1 of Patent Document 3 made into 5 mg/ml or a solution of the L-succinylaminoacylase of the present invention prepared in the above Example 1 made into 5 mg/ml. The resulting reaction solution was subjected to a reaction for 4 hours with stirring at 50° C. After completion of the reaction, a sample was collected therefrom and subjected to an HPLC measurement under the same condition as in Example 2 to calculate the conversion rate into each of the L-amino acids corresponding to N-succinyl-DL-4-bromophenylalanine, N-succinyl-DL-biphenylalanine, N-succinyl-DL-3,4-dichlorophenylalanine, N-succinyl-DL-cyclohexylglycine, and N-succinyl-DL-tert-leucine.

[2] = tested on: L-succinylaminoacylase disclosed in Patent Document 3; experiment: Comparative experiment for enzymatic activity (ii), enzyme of Patent Document 3 (Example 7); format: biochemical, Geobacillus stearothermophilus NCA 1503 strain; settings: 4 hours, 50° C., pH 7.5, cobalt acetate
Description: as §1

[3] = tested on: L-succinylaminoacylase of the present invention; experiment: Hydrolysis of N-succinyl-DL-amino acid to L-amino acid by L-succinylaminoacylase, HPLC (Examples 2 and 3); format: biochemical, Geobacillus stearothermophilus IFO 12983 strain; settings: for Yield (%) of corresponding L-amino acid: 10% by weight substrate, 96 hours, same condition as in Example 2 (57° C., 0.5 mM CoCl2)
Description: The N-succinyl-DL-tert-leucine synthesized in the above (1) was dissolved in distilled water and its pH was adjusted using 0.1N sodium hydroxide (manufactured by Nacalai tesque) to prepare a 5% by weight solution of N-succinyl-DL-tert-leucine (pH 7 to 8). […] This reaction solution was kept at 57° C. for 144 hours with stirring.
Column: Inertsil ODS-2 (particle size: 5 μm; 4.6 mm inner diameter×250 mm length) manufactured by GL Science
Eluant: aqueous solution of phosphate (pH 2.3)/acetonitrile for HPLC=80:20
Column temperature: 40° C.
The reaction was carried out for 96 hours under the same condition as in Example 2 using N-succinyl-DL-valine, N-succinyl-DL-phenylalanine, N-succinyl-DL-tryptophan, N-succinyl-DL-asparagine, N-succinyl-DL-serine, N-succinyl-DL-tyrosine, or N-succinyl-DL-cyclohexylglycine synthesized in the above (2) and (3) instead of N-succinyl-DL-tert-leucine. However, concentration of each N-succinyl-DL-amino acid was made 10% by weight. After completion of the reaction, a sample was collected therefrom and subjected an HPLC measurement under the same condition as in Example 2 to calculate the conversion rate into each L-amino acid corresponding to N-succinyl-DL-valine, N-succinyl-DL-phenylalanine, N-succinyl-DL-tryptophan, N-succinyl-DL-asparagine, N-succinyl-DL-serine, N-succinyl-DL-tyrosine, and N-succinyl-DL-cyclohexylglycine.

[4] = tested on: L-succinylaminoacylase of the present invention; experiment: Comparative experiment for enzymatic activity (i), with racemase (Example 6); format: biochemical, Geobacillus stearothermophilus IFO 12983 strain; settings: 5% by weight substrate, racemase (2), 50° C., up to 144 hours, FIG. 3
Description: The N-succinyl-DL-tert-leucine synthesized in the above (1) was dissolved in distilled water and its pH was adjusted using 0.1N sodium hydroxide (manufactured by Nacalai tesque) to prepare a 5% by weight solution of N-succinyl-DL-tert-leucine (pH 7 to 8). To 10 ml of this solution were added 0.5 mM (final concentration) of CoCl2 and 0.1 ml of the N-succinylamino acid racemase in the above (2) prepared in 10 mg/ml. To the resulting solution was added 0.1 ml of the L-succinylaminoacylase disclosed in Example 1 of Patent Document 3 made into 2.5 mg/ml or a solution of the L-succinylaminoacylase of the present invention prepared in the above Example 1 and made into 2.5 mg/ml. The prepared reaction solution was kept at 50° C. for 144 hours with stirring. The sample was collected after 24 hours, 48 hours, 72 hours and 144 hours from the start of the reaction and subjected to an HPLC measurement to confirm the peaks of succinyl-form compound and free-form compound whereby the synthesis of L-tert-leucine from N-succinyl-DL-tert-leucine was confirmed.

[5] = tested on: L-succinylaminoacylase of the present invention and N-succinylamino acid racemase; experiment: Synthesis of L-tert-leucine using L-succinylaminoacylase and N-succinylamino acid racemase (ii) (Example 5); format: biochemical; settings: 1% by weight substrate, racemase prepared in (2) added, up to 120 hours
Description: The same reaction as in Example 4 was carried out for 120 hours except that the product prepared in the above (2) was used as an N-succinylamino acid racemase. The sample was collected after 24 hours, 48 hours and 120 hours from the start of the reaction and subjected to an HPLC measurement under the same condition as in Example 2 to confirm the synthesis of L-tert-leucine from N-succinyl-DL-tert-leucine.

[6] = tested on: L-succinylaminoacylase of the present invention and N-succinylamino acid racemase; experiment: Synthesis of L-tert-leucine using L-succinylaminoacylase and N-succinylamino acid racemase (i) (Example 4); format: biochemical, Geobacillus stearothermophilus; settings: 1% by weight substrate, racemase prepared in (1) added, 90 hours; 100% is the theoretically highest yield
Description: The reaction was carried out for 90 hours under the same condition as in Example 2 except that the concentration of the N-succinyl-DL-tert-leucine solution was made 1% by weight and that 0.1 ml of a 9.6 mg/ml solution of N-succinylamino acid racemase prepared in the above (1) was previously added to the reaction solution. After completion of the reaction, the sample was collected therefrom and subjected to an HPLC measurement under the same condition as in Example 2 to calculate the yield of L-tert-leucine whereupon the yield was not lower than 90% and the value being nearly equal to 100% which is the theoretically highest yield was achieved.

[7] = Physical and chemical properties of the L-succinylaminoacylase (temperature stability, optimum temperature, optimum pH); format: physicochemical
Description: Physical and chemical properties of the L-succinylaminoacylase of the present invention are as shown in the following (i) to (v).
(iii) Temperature stability: When it is subjected to a heating treatment for 30 minutes, it is stable at 70° C. and is inactivated at 75° C. or higher;
(iv) Optimum temperature: When it is made to react at pH 7 to 8, its action is optimum at the temperature of 55 to 60° C.; and
(v) Optimum pH: When it is made to react at 60° C. for 30 minutes, its action is optimum at pH 7.

[8] = Metal ion dependence of L-succinylaminoacylase activity; format: biochemical
From the text: Examples of the divalent or univalent metal ion include Mn^2+, Co^2+, Mg^2+, Ca^2+, Ni^2+ and K^+ and, among them, Co^2+ is particularly preferred. It has been known that, when Co^2+ is used, the activity increased to an extent of twice or more as compared with the case where Zn^2+ is used.

[9] = heating treatment for 30 minutes

Molecule	Conversion rate by L-succinylaminoacylase of the present invention (%) [1] [%]	Conversion rate by L-succinylaminoacylase of Patent Document 3 (%) [2] [%]	Yield (%) of corresponding L-amino acid [3] [%]	other results
O=C(O)CCC(=O)NC(Cc1ccc(Br)cc1)C(=O)O (racemic) [N-succinyl-DL-4-bromophenylalanine]	97.5	97.1	–	–
NC(=O)CC(NC(=O)CCC(=O)O)C(=O)O (racemic) [N-succinyl-DL-asparagine]	–	–	42.5	–
O=C(O)CCC(=O)NC(Cc1ccc(-c2ccccc2)cc1)C(=O)O (racemic) [N-succinyl-DL-biphenylalanine]	74.1	8.8	–	–
O=C(O)CCC(=O)NC(C(=O)O)C1CCCCC1 (racemic) [N-succinyl-DL-cyclohexylglycine]	97.3	53.6	49.2	–
O=C(O)CCC(=O)NC(Cc1ccc(Cl)c(Cl)c1)C(=O)O (racemic) [N-succinyl-DL-dichlorophenylalanine, N-succinyl-DL-3,4-dichlorophenylalanine]	83.3	82.0	–	–
O=C(O)CCC(=O)NC(Cc1ccccc1)C(=O)O (racemic) [N-succinyl-DL-phenylalanine]	–	–	37.5	–
O=C(O)CCC(=O)NC(CO)C(=O)O (racemic) [N-succinyl-DL-serine]	–	–	43.4	–
CC(C)(C)C(NC(=O)CCC(=O)O)C(=O)O (racemic) [N-succinyl-DL-tert-leucine]	45.7	0.1	–	Conversion rate from N-succinyl-DL-tert-leucine to L-tert-leucine compared with enzyme of Patent Document 3 [4]: significantly high conversion rate; Yield of L-tert-leucine [5]: ≥ 90%; Yield (conversion rate) of L-tert-leucine ([3]; 5% by weight substrate, 0.5 mM CoCl2, 57° C., pH 7 to 8, up to 144 hours, 50% is the theoretically highest yield): ~50%; Yield of L-tert-leucine [6]: ≥ 90%
O=C(O)CCC(=O)NC(Cc1c[nH]c2ccccc12)C(=O)O (racemic) [N-succinyl-DL-tryptophan]	–	–	31.4	–
O=C(O)CCC(=O)NC(Cc1ccc(O)cc1)C(=O)O (racemic) [N-succinyl-DL-tyrosine]	–	–	19.1	–
CC(C)C(NC(=O)CCC(=O)O)C(=O)O (racemic) [N-succinyl-DL-valine]	–	–	42.4	–
B1	–	–	–	Temperature stability: inactivated at [7, 9]: ≥ 75 °C; Temperature stability: stable at [7, 9]: 70 °C; Optimum pH ([7]; reaction at 60° C. for 30 minutes): 7; Increase of activity with Co^2+ as compared with Zn^2+ [8]: twice or more
